Results on ten compounds are retold here after patent US7038074B2, “Arginine mimetics as factor Xa inhibitors” (Wilex AG, priority 2000, dated 2006).

“Also recorded” adds a separate entry of the source. Read-outs that look alike come from different tables or passages of the source.

For orientation: Ki means a dissociation constant, usually derived from enzyme kinetics or from competition with a known ligand.

Series [1] deals with factor Xa. Conditions: prior art, Gabriel et al. 1998; cited from earlier work.
Series [2] has as its system factor Xa. Put plainly: Determining the inhibitor constants (Ki, Dixon), factor Xa. The format is biochemical, bovine or human. The method, then: (§1) The measurements were carried out at 25° C. on a microplate reader (MR 5000, Dynatech, Denkendorf, Germany). The test medium consisted of 200 μl of Tris buffer (0.05 M; 0.154 M NaCl, 5% ethanol, pH 8.0), 25 μl of aqueous substrate solution and 50 μl of enzyme solution. Two concentrations of the substrate and five concentrations of the inhibitor were used. Three minutes after adding the enzyme, 25 μl of acetic acid (50%) were added in order to quench the reaction and the optical density was measured at 405 nm. The Ki values were calculated in accordance with Dixon (M. Dixon (1953), Biochem. J. 55, 170–171) using a linear regression. The Ki values given in FIGS. 2 and 3 are means of at least three determinations.
(§2) The following enzymes and the corresponding substrates were used at the given final concentrations: bovine thrombin, prepared in accordance with Walsmann (P. Walsmann (1968), Pharmazie 23, 401–402) (2 262 U/mg, final concentration 0.45 U/ml), substrate MeSO2-D-hexahydrotyrosyl-Gly-Arg-pNA (final concentration 0.18 and 0.09 mM); bovine factor Xa (5 U/vial, 0.11 U/ml; Diagnostic Reagents Ltd., Thame, UK), substrate MeSO2-D-Nle-Gly-Arg-pNA (0.36 and 0.18 mM); human factor Xa (0.18 μg/ml; Kordia Lab. Supplies, Leiden, Netherlands), substrate as for bovine factor Xa human plasmin (0.67 CTA U/mg, 0.06 CTA U/ml; Behringwerke AG, Marburg, Germany), substrate Tos-Gly-Pro-Lys-pNA (0.18 and 0.09 mM); human uPA (500 000 U/vial, final concentration 150 U/ml; Ribosepharm GmbH Haan, Germany), substrate Bz-βAla-Gly-Arg-pNA (0.18 and 0.09 mM); bovine pancreas trypsin (42 U/mg, 0.0038 U/ml; Serva, Heidelberg, Germany), substrate MeSO2-D-hexahydrotyrosyl-Gly-Arg-pNA (0.18 and 0.06 mM).

Another series has as its target T1, human uPA (Homo sapiens, UniProt P00749).
T1 construct: purchased Ribosepharm GmbH Haan, Germany
Put plainly: Determining the inhibitor constants, uPA. In kind it is biochemical. On the procedure: as §1, §2

The nature of series [3]: Chemical and enzymic stability, stability towards acids. The format is physicochemical. The note with it: for example stomach acids.
In the next series the target is T2, bovine thrombin (Bos taurus, UniProt P00735).
T2 construct: converts the zymogen prothrombin into its active form thrombin; made in house
Put plainly: Determining the inhibitor constants, thrombin. The format is biochemical. The method, then: as §1, with “determinations. […]” for “determinations.”

For a further series, the target named is T3, bovine pancreas trypsin (Bos taurus, UniProt P00760).
T3 construct: purchased Serva, Heidelberg, Germany; host or cells: bovine pancreas
T3 sequence (P00760 24-246): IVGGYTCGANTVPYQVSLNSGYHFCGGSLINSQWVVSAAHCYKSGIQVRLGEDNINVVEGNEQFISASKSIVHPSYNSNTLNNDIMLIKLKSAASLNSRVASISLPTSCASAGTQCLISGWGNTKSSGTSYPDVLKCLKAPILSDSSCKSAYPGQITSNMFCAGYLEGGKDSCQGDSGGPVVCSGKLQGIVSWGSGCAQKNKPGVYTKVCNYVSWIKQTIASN
Put plainly: Determining the inhibitor constants, trypsin. The format is biochemical. On the procedure: as §1, §2

The target of series [4] is T4, factor Xa (UniProt P00743).
T4 construct: Ki factor Xa; other: 25° C., pH 8.0; factor Xa activity of the D-enantiomer relative to the L-enantiomer 27; other: compound 28 versus compound 27; other: relative to compound 31
Put plainly: Determining the inhibitor constants (Ki, Dixon), factor Xa. The format is biochemical, bovine or human. Conditions: for Ki: 25° C., pH 8.0, species of factor Xa not given. On the procedure:
as §1, §2

Turning to `CCOC(=O)C(Cc1ccc(C(=N)N)cc1)NC(=O)CNS(=O)(=O)c1ccc(C(=N)N)cc1` (racemic) [Compound 2, N^α-4-amidinobenzenesulfonylglycyl-D,L-4-amidinophenylalanine ethyl ester], on factor Xa [1], the inhibition constant Ki was 500 nM.
For the compound `COC(=O)C(Cc1cccc(C(=N)N)c1)NC(=O)OC12CC3CC(CC(C3)C1)C2.Cl` (racemic) [Compound 11, N-1-adamantyloxycarbonyl-D,L-3-amidinophenylalanine methyl ester hydrochloride], in the series with factor Xa [2], the “selectivity for factor Xa vis-à-vis uPA, thrombin and trypsin” value is listed as “remarkable selectivity”. Besides, the “inhibitory effect on factor Xa (in words)” value (“inhibitory effect” for short) in the series on factor Xa [2] (hydrochloride) was “significantly increased inhibitory effect; also recorded: submicromolar inhibition”.
Take `COC(=O)C(Cc1cccc(C(=N)N)c1)NC(=O)NC12CC3CC(CC(C3)C1)C2.Cl` (racemic) [Compound 12, N-1-adamantylaminocarbonyl-D,L-3-amidinophenylalanine methyl ester hydrochloride]: the “inhibition of uPA (in words)” value against human uPA is given as “dramatic effects on the inhibition of uPA”. For the same compound, the “stability (acids; chemical and enzymic)” value in series [3] is “desirable stability towards acids”.
As to `Cl.N=C(N)c1cccc(CC(NC(=O)OC23CC4CC(CC(C4)C2)C3)C(=O)O)c1` (racemic) [Compound 15, N-1-adamantyloxylcarbonyl-D,L-3-amidinophenylalanine hydrochloride], the “inhibitory effect” value with factor Xa [2] is listed as “does not show any important differences”.
Take `COC(=O)C(Cc1ccc(NC(=N)N)cc1)NC(=O)OC12CC3CC(CC(C3)C1)C2.Cl` (racemic) [Compound 26, N-1-adamantyloxycarbonyl-D,L-4-guanidinophenylalanine methyl ester hydrochloride]: in the series with factor Xa [2], the “inhibitory effect” value was “dramatic loss in inhibitory activity”. Moreover, at human uPA, the “inhibition of uPA (in words)” value is “dramatic loss in inhibitory activity”. Moreover, the “inhibition of thrombin (in words)” value against bovine thrombin was “dramatic loss in inhibitory activity”. The “inhibition of / affinity for trypsin (in words)” value (shortened to “inhibition of / affinity”) at bovine pancreas trypsin is “dramatic loss in inhibitory activity”.
Take `Cl.N=C(N)c1cccc(CC(NC(=O)OC23CC4CC(CC(C4)C2)C3)C(=O)N2CCCCC2)c1` [Compound 17, N-1-adamantyloxycarbonyl-D,L-3-amidinophenylalanine piperidide hydrochloride]: the “inhibitory effect” value in the series on factor Xa [2] is recorded as “does not show any important differences”.
As to `COC(=O)[C@H](Cc1cccc(C(=N)N)c1)NC(=O)OC12CC3CC(CC(C3)C1)C2.Cl` [Compound 27, N-1-adamantyloxycarbonyl-L-3-amidinophenylalanine methyl ester hydrochloride], the “inhibition of uPA (in words)” value at human uPA is reported as “only capable of recognizing the L-enantiomer”. Moreover, on bovine pancreas trypsin, the “inhibition of / affinity” value is “almost identical affinity”.
For `COC(=O)[C@@H](Cc1cccc(C(=N)N)c1)NC(=O)OC12CC3CC(CC(C3)C1)C2.Cl` [Compound 28, N-1-adamantyloxycarbonyl-D-3-amidinophenylalanine methyl ester hydrochloride], the inhibition constant (Ki) on factor Xa [4] is 390 nM. In addition, the “factor Xa activity of the D-enantiomer relative to the L-enantiomer 27” value on factor Xa [4] (compound 28 versus compound 27) was “about 10 times”. For the same compound, the “inhibition of uPA (in words)” value on human uPA was “only capable of recognizing the L-enantiomer”. Further, the “inhibition of / affinity” value against bovine pancreas trypsin was “almost identical affinity”.
The compound `Cl.N=C(N)c1cccc(C[C@@H](NC(=O)OC23CC4CC(CC(C4)C2)C3)C(=O)NCCc2ccccc2)c1` [Compound 31, N-1-adamantyloxycarbonyl-D-3-amidinophenylalanine-(2-phenyl)-1-ethylamine hydrochloride] gave a Ki at factor Xa [4] of 74 nM. Also, the “inhibitory effect” value in the series with factor Xa [2] (hydrochloride) was “strongest inhibitor”; in the series with factor Xa [2] (listed as N-1-adamantyloxycarbonyl-D-3-amidinophenylalanine-(2-phenyl)-1-ethylamide, hydrochloride), “very powerful inhibitory effect”.
For `N=C(N)c1cccc(C[C@@H](NC(=O)NC23CC4CC(CC(C4)C2)C3)C(=O)NCCc2ccccc2)c1` [Compound 32, N-(1-adamantylaminocarbonyl)-D-3-amidinophenylalanine-(2-phenyl)-1-ethylamide], the “factor by which FXa is inhibited better than by compound 31” value on factor Xa [4] (relative to compound 31) is reported as 3. Moreover, the “inhibitory effect” value in the series with factor Xa [2] is “even more powerful inhibitory effect”.
